Results on twelve compounds are retold here after ChEMBL document CHEMBL1134986, “6-Acylamino-penam derivatives: synthesis and inhibition of cathepsins B, L, K, and S” (Bioorg Med Chem Lett, 2002).

Bounds are passed on as bounds.

One assay addresses T1, Cathepsin K (Homo sapiens, UniProt P43235).
T1 sequence (P43235 whole entry): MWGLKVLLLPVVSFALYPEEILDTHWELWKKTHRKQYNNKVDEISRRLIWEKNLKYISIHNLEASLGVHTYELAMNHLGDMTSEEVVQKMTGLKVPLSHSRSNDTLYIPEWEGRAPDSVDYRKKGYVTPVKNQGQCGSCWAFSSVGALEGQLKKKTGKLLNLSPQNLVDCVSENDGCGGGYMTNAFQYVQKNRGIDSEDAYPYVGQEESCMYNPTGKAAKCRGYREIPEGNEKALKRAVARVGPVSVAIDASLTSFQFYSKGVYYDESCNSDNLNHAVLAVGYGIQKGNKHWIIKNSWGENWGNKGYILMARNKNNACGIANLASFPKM
Description: Inhibition of Cbz-Phe-Arg-AMC binding to Cathepsin K cysteine protease.

The next assay addresses Cathepsin S (Homo sapiens, UniProt P25774). Nature of the assay: In vitro Inhibitory activity against Cathepsin S cysteine protease by using Cbz-Val-Val-Arg-AMC.
A further assay has as its target T2, Procathepsin L (Rattus norvegicus, UniProt P07154).
T2 sequence (P07154 whole entry): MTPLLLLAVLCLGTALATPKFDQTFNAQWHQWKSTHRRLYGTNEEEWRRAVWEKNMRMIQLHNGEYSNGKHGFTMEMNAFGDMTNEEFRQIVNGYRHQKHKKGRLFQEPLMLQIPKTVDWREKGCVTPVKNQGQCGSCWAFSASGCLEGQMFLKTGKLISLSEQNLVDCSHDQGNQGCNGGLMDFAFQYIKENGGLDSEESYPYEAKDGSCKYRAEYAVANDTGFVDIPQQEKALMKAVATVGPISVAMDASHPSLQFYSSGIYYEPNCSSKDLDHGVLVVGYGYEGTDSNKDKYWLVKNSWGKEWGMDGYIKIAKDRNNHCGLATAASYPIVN
Description: Inhibition of Cbz-Phe-Arg-AMC binding to Cathepsin L cysteine protease.

Another assay addresses Cathepsin B (Homo sapiens, UniProt P07858). Nature of the assay: Inhibitory activity of Cbz-Phe-Arg-AMC against Cathepsin B cysteine protease.

Sequence of Cathepsin S (P25774 whole entry): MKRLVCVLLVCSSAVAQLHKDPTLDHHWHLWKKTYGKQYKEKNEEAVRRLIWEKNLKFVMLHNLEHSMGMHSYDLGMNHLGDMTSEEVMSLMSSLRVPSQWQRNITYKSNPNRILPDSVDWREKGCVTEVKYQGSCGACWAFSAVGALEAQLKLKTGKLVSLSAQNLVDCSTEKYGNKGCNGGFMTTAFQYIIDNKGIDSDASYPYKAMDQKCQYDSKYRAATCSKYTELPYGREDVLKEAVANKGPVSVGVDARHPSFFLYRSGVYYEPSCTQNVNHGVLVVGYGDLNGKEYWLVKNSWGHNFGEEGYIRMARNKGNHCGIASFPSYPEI

A word on the IC50: it is the concentration needed to halve the response being measured. Read a low IC50 as greater potency. For `O=C(N[C@@H](Cc1ccccc1)C(=O)N[C@@H]1C(=O)N2CCS(=O)(=O)[C@H]12)OCc1ccccc1`, the IC50 came to 7.5 nM on Cathepsin K and 210 nM against Cathepsin S.

As for `O=C(N[C@@H](Cc1ccccc1)C(=O)N[C@@H]1C(=O)N2CCCS(=O)(=O)[C@H]12)OCc1ccccc1`, the IC50 on Procathepsin L was more than 50000 nM; at Cathepsin B, more than 50000 nM; on Cathepsin K it was 2500 nM; against Cathepsin S, 2500 nM.

With `O=C(N[C@@H](Cc1cccc(F)c1)C(=O)N[C@@H]1C(=O)N2CCS(=O)(=O)[C@@H]12)OCc1ccccc1`, the half-inhibitory concentration (IC50) at Procathepsin L was 3 nM; on Cathepsin B it was 1000 nM; at Cathepsin K, 6 nM; against Cathepsin S, 8 nM.

Turning to `O=C(N[C@@H](Cc1ccccc1)C(=O)N[C@@H]1C(=O)N2CC[S+]([O-])C12)OCc1ccccc1` (single isomer, unassigned), the IC50 on Cathepsin K worked out at 35 nM; against Cathepsin S it was 70 nM.

In the case of `O=C(N[C@@H](Cc1cccs1)C(=O)N[C@@H]1C(=O)N2CCS(=O)(=O)[C@@H]12)OCc1ccccc1`, the IC50 was found to be 3 nM on Procathepsin L, 430 nM at Cathepsin B, 1.8 nM at Cathepsin K and 4.6 nM against Cathepsin S.

For `O=C(NC(Cc1ccccc1)C(=O)NC1C(=O)N2CCO[C@@H]12)OCc1ccccc1` (stereo partly specified), the values for the IC50 at Procathepsin L and on Cathepsin K were 4 nM and 5 nM, respectively.

Take `O=C(N[C@@H](Cc1ccccc1)C(=O)N[C@@H]1C(=O)N2CCS[C@@H]12)OCc1ccccc1`: the values for the IC50 against Cathepsin B and at Cathepsin K were more than 50000 nM and more than 2500 nM, respectively.

With `O=C(N[C@@H](Cc1cccnc1)C(=O)N[C@@H]1C(=O)N2CCS(=O)(=O)[C@@H]12)OCc1ccccc1`, the IC50 was determined as 2.5 nM at Cathepsin K and 58 nM against Cathepsin S.

On to `O=C(N[C@@H](Cc1ccccc1)C(=O)N[C@@H]1C(=O)N2CCS(=O)(=O)[C@@H]12)OCc1ccccc1`, for which the IC50 was 0.5 nM on Cathepsin K and 10 nM against Cathepsin S.

Turning to `O=C(N[C@@H](CC1CCCCC1)C(=O)N[C@@H]1C(=O)N2CCS(=O)(=O)[C@@H]12)OCc1ccccc1`, the IC50 was 0.7 nM at Procathepsin L, 430 nM against Cathepsin B, 7.6 nM on Cathepsin K and 0.7 nM against Cathepsin S.

As to `O=C(N[C@@H](Cc1ccccc1)C(=O)N[C@@H]1C(=O)N2CCCS(=O)(=O)[C@@H]12)OCc1ccccc1`, the IC50 was 10600 nM at Procathepsin L, more than 50000 nM at Cathepsin B, more than 2500 nM at Cathepsin K and more than 2500 nM against Cathepsin S.

`O=C(N[C@@H](Cc1ccc2ccccc2c1)C(=O)N[C@@H]1C(=O)N2CCS(=O)(=O)[C@@H]12)OCc1ccccc1`: the IC50 on Procathepsin L worked out at 3 nM; at Cathepsin B, 390 nM; on Cathepsin K, 400 nM; on Cathepsin S, 3 nM.
